From patent publication US20170217946A1, “AMINO-SUBSTITUTED ISOXAZOLES” (Bayer Pharma Aktiengesellschaft, priority 2014, published 2017)
pIC50: −log10 of the molar value.

Columns and labels:
[1] = molecular target: T1, human Bub1 (Homo sapiens, UniProt O43683); test: Bub1 kinase assay (TR-FRET); type: biochemical; details: 10 μM ATP
T1 construct: catalytic domain of human Bub1 (amino acids 704-1085); His6 (N); made in house; host or cells: insect cells (Hi5)
Description: Bub1-inhibitory activity of compounds of the present invention was quantified employing the Bub1 TR-FRET assay as described in the following paragraphs.
N-terminally His6-tagged recombinant catalytic domain of human Bub1 (amino acids 704-1085), expressed in insect cells (Hi5) and purified by Ni-NTA affinity chromatography and subsequent size exclusion chromatography, was used as enzyme. As substrate for the kinase reaction the biotinylated peptide biotin-Ahx-VLLPKKSFAEPG (C-terminus in amid form) was used which can be purchased e.g. form the company Biosyntan (Berlin, Germany).
For the assay 50 nl of a 100 fold concentrated solution of the test compound in DMSO was pipetted into a black low volume 384 well microtiter plate (Greiner Bio-One, Frickenhausen, Germany), 2 μl of a solution of Bub1 in aqueous assay buffer [50 mM Tris/HCl pH 7.5, 10 mM magnesium chloride (MgCl2), 200 mM potassium chloride (KCl), 1.0 mM dithiothreitol (DTT), 0.1 mM sodium ortho-vanadate, 1% (v/v) glycerol, 0.01% (w/v) bovine serum albumine (BSA), 0.005% (v/v) Trition X-100 (Sigma), 1× Complete EDTA-free protease inhibitor mixture (Roche)] were added and the mixture was incubated for 15 min at 22° C. to allow pre-binding of the test compounds to the enzyme before the start of the kinase reaction. Then the kinase reaction was started by the addition of 3 μl of a solution of adenosine-tri-phosphate (ATP, 16.7 μM=>final conc. in the 5 μl assay volume is 10 μM) and substrate (1.67 μM=>final conc. in the 5 μl assay volume is 1 μM) in assay buffer and the resulting mixture was incubated for a reaction time of 60 min at 22° C. The concentration of Bub1 was adjusted depending of the activity of the enzyme lot and was chosen appropriate to have the assay in the linear range, typical concentrations were in the range of 200 ng/ml. The reaction was stopped by the addition of 5 μl of a solution of TR-FRET detection reagents (0.2 μM streptavidine-XL665 [Cisbio Bioassays, Codolet, France] and 1 nM anti-phosho-Serine antibody [Merck Millipore, cat. #35-001] and 0.4 nM LANCE EU-W1024 labeled anti-mouse IgG antibody [Perkin-Elmer, product no. AD0077, as an alternative a Terbium-cryptate-labeled anti-mouse IgG antibody from Cisbio Bioassays can be used]) in an aqueous EDTA-solution (50 mM EDTA, 0.2% (w/v) bovine serum albumin in 100 mM HEPES pH 7.5).
The resulting mixture was incubated 1 h at 22° C. to allow the formation of complex between the phosphorylated biotinylated peptide and the detection reagents. Subsequently the amount of phosphorylated substrate was evaluated by measurement of the resonance energy transfer from the Eu-chelate to the streptavidine-XL. Therefore, the fluorescence emissions at 620 nm and 665 nm after excitation at 350 nm was measured in a TR-FRET reader, e.g. a Rubystar or Pherastar (both from BMG Labtechnologies, Offenburg, Germany) or a Viewlux (Perkin-Elmer). The ratio of the emissions at 665 nm and at […] was taken as the measure for the amount of phosphorylated substrate. The data were normalised (enzyme reaction without inhibitor=0% inhibition, all other assay components but no enzyme=100% inhibition).

[2] = molecular target: T2, CDK2/CycE (Homo sapiens, UniProt P24941); test: CDK2/CycE kinase assay (TR-FRET); type: biochemical; details: 10 μM ATP
T2 construct: GST; purchased ProQinase GmbH (Freiburg, Germany); host or cells: insect cells (Sf9)
Description: CDK2/CycE-inhibitory activity of compounds of the present invention was quantified employing the CDK2/CycE TR-FRET assay as described in the following paragraphs.
Recombinant fusion proteins of GST and human CDK2 and of GST and human CycE, expressed in insect cells (Sf9) and purified by Glutathion-Sepharose affinity chromatography, were purchased from ProQinase GmbH (Freiburg, Germany). As substrate for the kinase reaction biotinylated peptide biotin-Ttds-YISPLKSPYKISEG (C-terminus in amid form) was used which can be purchased e.g. form the company JERINI peptide technologies (Berlin, Germany).
For the assay 50 nl of a 100 fold concentrated solution of the test compound in DMSO was pipetted into a black low volume 384 well microtiter plate (Greiner Bio-One, Frickenhausen, Germany), 2 μl of a solution of CDK2/CycE in aqueous assay buffer [50 mM Tris/HCl pH 8.0, 10 mM MgCl2, 1.0 mM dithiothreitol, 0.1 mM sodium ortho-vanadate, 0.01% (v/v) Nonidet-P40 (Sigma)] were added and the mixture was incubated for 15 min at 22° C. to allow pre-binding of the test compounds to the enzyme before the start of the kinase reaction. Then the kinase reaction was started by the addition of 3 μl of a solution of adenosine-tri-phosphate (ATP, 16.7 μM=>final conc. in the 5 μl assay volume is 10 μM) and substrate (1.25 μM=>final conc. in the 5 μl assay volume is 0.75 μM) in assay buffer and the resulting mixture was incubated for a reaction time of 25 min at 22° C. […]
The resulting mixture was incubated 1 h at 22° C. to allow the formation of complex between the phosphorylated biotinylated peptide and the detection reagents. Subsequently the amount of phosphorylated substrate was evaluated by measurement of the resonance energy transfer from the Eu-chelate to the streptavidine-XL. Therefore, the fluorescence emissions at 620 nm and 665 nm after excitation at 350 nm was measured in a TR-FRET reader, e.g. a Rubystar (BMG Labtechnologies, Offenburg, Germany) or a Viewlux (Perkin-Elmer). […]

T1 sequence (O43683 704-1085): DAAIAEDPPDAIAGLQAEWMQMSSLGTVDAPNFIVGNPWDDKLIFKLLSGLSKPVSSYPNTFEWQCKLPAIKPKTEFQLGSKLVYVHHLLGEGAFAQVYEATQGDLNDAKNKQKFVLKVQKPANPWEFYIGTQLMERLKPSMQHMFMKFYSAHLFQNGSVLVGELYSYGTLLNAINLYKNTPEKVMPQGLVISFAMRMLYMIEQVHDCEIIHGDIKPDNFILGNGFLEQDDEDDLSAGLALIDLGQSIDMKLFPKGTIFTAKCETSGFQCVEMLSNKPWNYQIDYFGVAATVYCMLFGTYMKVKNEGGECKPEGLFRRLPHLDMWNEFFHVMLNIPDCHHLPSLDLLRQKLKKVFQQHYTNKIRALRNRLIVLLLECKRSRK

SMILES	pIC50 [1]	pIC50 [2]
Cc1noc(Nc2cnc(C(F)(F)F)cn2)c1C(=O)Nc1ccc(F)c(F)c1 [Example 1c, N-(3,4-Difluorophenyl)-3-methyl-5-{[5-(trifluoromethyl)pyrazin-2-yl]amino}-1,2-oxazole-4-carboxamide]	< 4.70	< 4.70
Cc1noc(Nc2cnc(C(F)(F)F)cn2)c1C(=O)Nc1ccc(OC2CCN(CCC(F)(F)F)CC2)nc1 [Example 1a, 3-Methyl-5-{[5-(trifluoromethyl)pyrazin-2-yl]amino}-N-(6-{[1-(3,3,3-trifluoropropyl)-piperidin-4-yl]oxy}pyridin-3-yl)-1,2-oxazole-4-carboxamide]	< 4.70	< 4.70
Cc1noc(Nc2cnc(C(=O)NC3CCN(CC(F)F)CC3)cn2)c1C(=O)Nc1ccc(F)c(F)c1 [Example 1b, N-[1-(2,2-Difluoroethyl)piperidin-4-yl]-5-({4-[(3,4-difluorophenyl)carbamoyl]-3-methyl-1,2-oxazol-5-yl}amino)pyrazine-2-carboxamide]	< 4.70	< 4.70
